Measured values taken from patent US9078871B2, “Estrogen receptor modulators and uses thereof” (SERAGON PHARMACEUTICALS, INC., priority 2010, dated 2015).

What was measured:
ER-α = biological target: T1, ER-α (Homo sapiens, UniProt P03372); assay: ER-α in Cell Western Assay (SP1); format: cell-based; conditions: MCF-7 cells, SP1 rabbit monoclonal Ab, 4 or 24 hr post compound addition, read-out: ER In-Cell Western Assay (SP1); for Emax: MCF7, Max Response; for DC50: IC50
T1 construct: endogenous in cells; host or cells: MCF-7
T1 sequence (P03372 1-595): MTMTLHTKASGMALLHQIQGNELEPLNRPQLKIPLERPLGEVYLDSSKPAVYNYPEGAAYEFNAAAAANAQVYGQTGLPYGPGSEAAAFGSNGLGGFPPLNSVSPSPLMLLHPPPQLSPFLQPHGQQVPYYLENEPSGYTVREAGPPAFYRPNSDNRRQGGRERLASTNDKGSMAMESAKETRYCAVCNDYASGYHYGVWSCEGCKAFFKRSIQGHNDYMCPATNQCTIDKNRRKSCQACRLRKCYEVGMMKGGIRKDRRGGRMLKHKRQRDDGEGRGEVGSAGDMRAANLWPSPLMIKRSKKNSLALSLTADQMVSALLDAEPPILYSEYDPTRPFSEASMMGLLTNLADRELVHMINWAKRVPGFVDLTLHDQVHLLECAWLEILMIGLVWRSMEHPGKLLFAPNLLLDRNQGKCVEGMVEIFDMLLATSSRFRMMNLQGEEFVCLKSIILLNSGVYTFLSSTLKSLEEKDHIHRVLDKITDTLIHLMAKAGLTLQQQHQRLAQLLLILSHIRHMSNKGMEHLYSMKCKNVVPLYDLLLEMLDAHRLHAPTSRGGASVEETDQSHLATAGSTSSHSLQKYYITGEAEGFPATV
Procedure: MCF-7 cells were adjusted to a concentration of 200,000 cells per mL in RPMI containing 10% charcoal-stripped FBS and 20 mM HEPES. 16 microliters of the cell suspension (3200 cells) was added to each well of a poly-D-lysine 384 well plate, and the cells were incubated overnight to allow the cells to adhere. The following day an eleven point, serial semilog dilution of each compound was added to the cells in 16 μL at a final concentration ranging from 0.3-0.000003 μM. At 4 or 24 hr post compound addition, the cells were fixed (10% formalin in PBS) for 20 minutes. Cells were permeabalized in PBS 0.1% Triton and blocked with LICOR blocking buffer (50 μl/well, 90′). The wells were then incubated overnight at 4° C. with SP1 rabbit monoclonal Ab (Thermo Scientific) diluted 1:1000 in LICOR blocking buffer/0.1% Tween-20. Wells which were treated with blocking buffer with Tween but no antibody were used as a background control. Wells were washed with 0.1% Tween-20/PBS and then incubated in goat anti-rabbit IRDye™ 800CW (LICOR Inc.; 1:1000) and DRAQ5 DNA dye (1:2000 for 2 mM stock) diluted in LICOR blocking buffer containing 0.1% Tween-20 and 0.01% SDS for 60 minutes. Cells were washed (50 μl/well, 5′ each) in 0.1% Tween-20/PBS. Plates were scanned on a LICOR Odyssey infrared imaging system. Integrated intensities in the 800 nm channel and 700 nm channel were measured to determine levels of ER and DNA respectively. Percent ER levels were determined as follows: (Integrated intensity 800 nm sample/integrated intensity 700 nm sample)/(Integrated intensity 800 nm untreated cells/integrated intensity 700 nm untreated cells)×100=% ER levels.

MCF-7 cells = assay: Breast Cancer Cell Viability Assay (MCF7 Viability Assay); format: cell-based; conditions: 5 days' compound exposure, CellTiter-Glo; for IC50: Homo sapiens, MCF7, 120 h
Procedure: MCF-7 cells were adjusted to a concentration of 20,000 cells per mL in RPMI containing 10% FBS and 20 mM HEPES. 16 microliters of the cell suspension (320 cells) was added to each well of a 384 well plate, and the cells were incubated overnight to allow the cells to adhere. The following day an eleven point, serial semilog dilution of each compound was added to the cells in 16 μL at a final concentration ranging from 0.3-0.000003 μM. After 5 days' compound exposure, 16 μL of CellTiter-GLo (Promega, Madison Wis.) was added to the cells the relative luminescence units (RLUs) of each well was determined. CellTiter-Glo added to 32 μL of medium without cells was used to obtain a background value. The Percent viability of each sample was determined as follows: (RLU sample-RLU background/RLU untreated cells-RLU background)×100=% viability.

| Compound | Emax (ER-α) [%] | DC50 (ER-α) [nM] | MCF7 Viability Assay Max Response (MCF-7 cells) | IC50 (MCF-7 cells) [nM] |
| --- | --- | --- | --- | --- |
| CC1=C(c2ccc(F)cc2)C(c2ccc(OC[C@H](C)N3CCOCC3)cc2)Oc2ccc(O)cc21 (stereo partly drawn) [Example 70, 3-(4-Fluorophenyl)-4-methyl-2-(4-((S)-2-morpholinopropoxy)phenyl)-2H-chromen-6-ol] | 60 to 85 | ≤ 1 | ++ (++ = a single % value ≧50%) | > 1 |
| CC1=C(c2ccc(Cl)cc2)C(c2ccc(OC[C@H](C)N3CC[C@@H](C)C3)cc2)Oc2ccc(O)cc21 (stereo partly drawn) [Example 44, 3-(4-Chlorophenyl)-4-methyl-2-(4-((S)-2-((R)-3-methylpyrrolidin-1-yl)propoxy)phenyl)-2H-chromen-6-ol] | 60 to 85 | > 1 | ++ (++ = a single % value ≧50%) | > 1 |
| CC1=C(c2ccc(O)c(C)c2)C(c2ccc(OC[C@H](C)N3CC[C@@H](C)C3)cc2)Oc2ccc(O)cc21 (stereo partly drawn) [Example 42, 3-(4-Hydroxy-3-methylphenyl)-4-methyl-2-(4-((S)-2-((R)-3-methylpyrrolidin-1-yl)propoxy)phenyl)-2H-chromen-6-ol] | ≥ 85 | ≤ 1 | ++ (++ = a single % value ≧50%) | ≤ 1 |
| CC1=C(c2ccc(F)cc2F)C(c2ccc(OC[C@H](C)N3CC[C@@H](C)C3)cc2)Oc2ccc(O)cc21 (stereo partly drawn) [Example 52, 3-(2,4-Difluorophenyl)-4-methyl-2-(4-((S)-2-((R)-3-methylpyrrolidin-1-yl)propoxy)phenyl)-2H-chromen-6-ol] | 60 to 85 | ≤ 1 | ++ (++ = a single % value ≧50%) | ≤ 1 |
| CC1=C(c2ccc(C(F)(F)F)c(O)c2)C(c2ccc(OC[C@H](C)N3CC[C@@H](C)C3)cc2)Oc2ccc(O)cc21 (stereo partly drawn) [Example 68, 3-(3-Hydroxy-4-(trifluoromethyl)phenyl)-4-methyl-2-(4-((S)-2-((R)-3-methylpyrrolidin-1-yl)propoxy)phenyl)-2H-chromen-6-ol] | 60 to 85 | > 1 | ++ (++ = a single % value ≧50%) | > 1 |
| CC1=C(c2ccc(O)cc2F)C(c2ccc(OC[C@H](C)N3CC[C@@H](C)C3)cc2)Oc2ccc(O)cc21 (stereo partly drawn) [Example 45, 3-(2-Fluoro-4-hydroxyphenyl)-4-methyl-2-(4-((S)-2-((R)-3-methylpyrrolidin-1-yl)propoxy)phenyl)-2H-chromen-6-ol] | ≥ 85 | ≤ 1 | ++ (++ = a single % value ≧50%) | ≤ 1 |
| CC1=C(c2cc(O)cc(F)c2)C(c2ccc(OC[C@H](C)N3CC[C@@H](C)C3)cc2)Oc2ccc(O)cc21 (stereo partly drawn) [Example 43, 3-(3-Fluoro-5-hydroxyphenyl)-4-methyl-2-(4-((S)-2-((R)-3-methylpyrrolidin-1-yl)propoxy)phenyl)-2H-chromen-6-ol] | ≥ 85 | ≤ 1 | ++ (++ = a single % value ≧50%) | ≤ 1 |
| CC1=C(c2cccc(O)c2C)C(c2ccc(OC[C@H](C)N3CC[C@@H](C)C3)cc2)Oc2ccc(O)cc21 (stereo partly drawn) [Example 40, 3-(3-Hydroxy-2-methylphenyl)-4-methyl-2-(4-((S)-2-((R)-3-methylpyrrolidin-1-yl)propoxy)phenyl)-2H-chromen-6-ol] | 60 to 85 | ≤ 1 | ++ (++ = a single % value ≧50%) | ≤ 1 |
| CC1=C(c2ccc(F)cc2)C(c2ccc(OC[C@H](C)N3CCC[C@H]3C)cc2)Oc2ccc(O)cc21 (stereo partly drawn) [Example 63, 3-(4-Fluorophenyl)-4-methyl-2-(4-((S)-2-((R)-2-methylpyrrolidin-1-yl)propoxy)phenyl)-2H-chromen-6-ol] | 60 to 85 | ≤ 1 | ++ (++ = a single % value ≧50%) | ≤ 1 |
| CC1=C(c2cccc(O)c2)C(c2ccc(OC[C@H](C)N3CC[C@@H](C)C3)cc2)Oc2ccc(O)c(F)c21 (stereo partly drawn) [Example 61, 5-Fluoro-3-(3-hydroxyphenyl)-4-methyl-2-(4-((S)-2-((R)-3-methylpyrrolidin-1-yl)propoxy)phenyl)-2H-chromen-6-ol] | ≥ 85 | ≤ 1 | ++ (++ = a single % value ≧50%) | ≤ 1 |
| CC1=C(c2cccc(O)c2)C(c2ccc(OC[C@H](C)N3C4CCC3CC4)cc2)Oc2ccc(O)cc21 (stereo partly drawn) [Example 67, 2-(4-((S)-2-(7-Azabicyclo[2.2.1]heptan-7-yl)propoxy)phenyl)-3-(3-hydroxyphenyl)-4-methyl-2H-chromen-6-ol] | < 60 | ≤ 1 | ++ (++ = a single % value ≧50%) | ≤ 1 |
| CC1=C(c2cc(F)c(O)c(F)c2)C(c2ccc(OC[C@H](C)N3CC[C@@H](C)C3)cc2)Oc2ccc(O)cc21 (stereo partly drawn) [Example 47, 3-(3,5-Difluoro-4-hydroxyphenyl)-4-methyl-2-(4-((S)-2-((R)-3-methylpyrrolidin-1-yl)propoxy)phenyl)-2H-chromen-6-ol] | ≥ 85 | ≤ 1 | ++ (++ = a single % value ≧50%) | ≤ 1 |
| CC1=C(c2cccc(O)c2)C(c2ccc(OC[C@H](C)n3cnc(C)c3)cc2)Oc2ccc(O)cc21 (stereo partly drawn) [Example 51, 3-(3-Hydroxyphenyl)-4-methyl-2-(4-((S)-2-(4-methyl-1H-imidazol-1-yl)propoxy)phenyl)-2H-chromen-6-ol] | 60 to 85 | ≤ 1 | ++ (++ = a single % value ≧50%) | ≤ 1 |
| CC1=C(c2ccc(F)c(F)c2)C(c2ccc(OC[C@H](C)N3CC[C@@H](C)C3)cc2)Oc2ccc(O)cc21 (stereo partly drawn) [Example 46, 3-(3,4-Difluorophenyl)-4-methyl-2-(4-((S)-2-((R)-3-methylpyrrolidin-1-yl)propoxy)phenyl)-2H-chromen-6-ol] | 60 to 85 | > 1 | ++ (++ = a single % value ≧50%) | > 1 |
| CC1=C(c2ccc(F)cc2Cl)C(c2ccc(OC[C@H](C)N3CC[C@@H](C)C3)cc2)Oc2ccc(O)cc21 (stereo partly drawn) [Example 50, 3-(2-Chloro-4-fluorophenyl)-4-methyl-2-(4-((S)-2-((R)-3-methylpyrrolidin-1-yl)propoxy)phenyl)-2H-chromen-6-ol] | 60 to 85 | ≤ 1 | ++ (++ = a single % value ≧50%) | ≤ 1 |
